Some results are limits rather than exact numbers.

Here are results for 23 compounds from patent US20240124439A1, “Pyrido[2,3-D]Imidazole Derivatives and Their Use As Inhibitors of ITK for the Treatment of Skin Disease” (Pfizer Inc., priority 2020, published 2024).

Assay [1] deals with activated CD4+ human T-cells (IL-2). Put plainly: IL-2 inhibition in supernatants from activated CD4+ human T-cells (cisbio HTRF). The following applies: T-cell; CD3/CD28-activated CD4+ human T cells, ImmunoCult stimulation 20 to 24 hrs; geometric mean of count n. The format is cell-based. The procedure, abridged: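 Primary human CD4+ T cells activated with CD3/CD28 for 3 days and expanded to 7-9 days total, plated at 30,000 cells/well. Cells preincubated 15 min with compound, then stimulated with ImmunoCult (1:50 final) for 20-24 h at 37° C. Supernatant IL-2 measured by HTRF (665/615 nm); IC50 from four-parameter logistic fit.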

The target of assay [2] is IL-2-Inducible T-Cell Kinase (ITK) (Homo sapiens (Human), UniProt Q08881). Nature of the assay: ITK enzyme assay (IL-2-inducible T-cell kinase activity). It counts as biochemical. The following applies: geometric mean of count n. In short, it runs like this:
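Full-length N-Flag/C-His human ITK, pre-incubated 30 min at RT with compound. Reaction in HEPES pH 7.5 buffer with MgCl2, glutathione, gelatin and Brij-35, started with BTK peptide substrate, 60 min at RT. EDTA stop, PT66/APC TR-FRET detection overnight; IC50 fitted by four-parameter logistic.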

Sequence of IL-2-Inducible T-Cell Kinase (ITK) (Q08881 whole entry): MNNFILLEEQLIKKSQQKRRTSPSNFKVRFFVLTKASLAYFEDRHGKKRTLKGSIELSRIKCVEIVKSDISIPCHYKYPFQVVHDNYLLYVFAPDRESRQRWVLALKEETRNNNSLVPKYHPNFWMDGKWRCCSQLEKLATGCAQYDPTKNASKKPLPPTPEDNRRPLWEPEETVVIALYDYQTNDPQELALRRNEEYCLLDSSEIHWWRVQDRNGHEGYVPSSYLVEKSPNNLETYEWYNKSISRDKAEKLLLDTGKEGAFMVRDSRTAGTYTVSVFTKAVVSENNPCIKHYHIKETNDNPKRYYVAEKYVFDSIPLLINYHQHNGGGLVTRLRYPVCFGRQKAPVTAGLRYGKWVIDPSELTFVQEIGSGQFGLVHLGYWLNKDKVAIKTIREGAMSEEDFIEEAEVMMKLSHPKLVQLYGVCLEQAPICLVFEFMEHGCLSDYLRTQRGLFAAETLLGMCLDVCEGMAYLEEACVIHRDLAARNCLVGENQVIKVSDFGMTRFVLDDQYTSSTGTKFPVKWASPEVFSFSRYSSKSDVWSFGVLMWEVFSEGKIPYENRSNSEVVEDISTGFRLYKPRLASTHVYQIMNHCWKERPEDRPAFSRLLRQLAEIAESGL

With `CN(C(=O)[C@@H]1C[C@@H]2[C@H](C1)C2(F)F)c1cnc2nc(-c3n[nH]c4c3C[C@@H]3C[C@]3(C)C4)[nH]c2c1` [Example 67, (1R,3s,5S)-6,6-Difluoro-N-methyl-N-(2-((4aS,5aR)-5a-methyl-1,4,4a,5,5a,6-hexahydrocyclopropa[f]indazol-3-yl)-1H-imidazo[4,5-b]pyridin-6-yl)bicyclo[3.1.0]hexane-3-carboxamide], the IC50 in assay [1] was 59 nM; in assay [2], 12 nM.
For `CN(C(=O)[C@H]1CCCCO1)c1cnc2nc(-c3n[nH]c4c3C[C@@H]3C[C@]3(C)C4)[nH]c2c1` [Example 68, (R)-N-Methyl-N-(2-((4aS,5aR)-5a-methyl-1,4,4a,5,5a,6-hexahydrocyclopropa[f]indazol-3-yl)-1H-imidazo[4,5-b]pyridin-6-yl)tetrahydro-2H-pyran-2-carboxamide], the IC50 turned out to be 177 nM in assay [1] and 107 nM in assay [2].
The corresponding values for `CN(C(=O)[C@H]1[C@@H]2COC[C@@H]21)c1cnc2nc(-c3n[nH]c4c3C[C@@H]3C[C@]3(C)C4)[nH]c2c1` [Example 69, (1R,5S,6r)-N-Methyl-N-(2-((4aS,5aR)-5a-methyl-1,4,4a,5,5a,6-hexahydrocyclopropa[f]indazol-3-yl)-1H-imidazo[4,5-b]pyridin-6-yl)-3-oxabicyclo[3.1.0]hexane-6-carboxamide] are 1160 nM and 292 nM.
Regarding `CN(C(=O)C1(C)CCOCC1)c1cnc2nc(-c3n[nH]c4c3C[C@@H]3C[C@]3(C)C4)[nH]c2c1` [Example 70, N,4-Dimethyl-N-(2-((4aS,5aR)-5a-methyl-1,4,4a,5,5a,6-hexahydrocyclopropa[f]indazol-3-yl)-1H-imidazo[4,5-b]pyridin-6-yl)tetrahydro-2H-pyran-4-carboxamide], the figures for the IC50 in assay [1] and in assay [2] were 462 nM and 93 nM, respectively.
Turning to `CCCC(=O)N(C)c1cnc2nc(-c3n[nH]c4c3C[C@@H]3C[C@]3(C)C4)[nH]c2c1` [Example 71, N-Methyl-N-(2-((4aS,5aR)-5a-methyl-1,4,4a,5,5a,6-hexahydrocyclopropa[f]indazol-3-yl)-1H-imidazo[4,5-b]pyridin-6-yl)butyramide], the IC50 in assay [1] is 313 nM; in assay [2], 42 nM.
In the case of `CC(C)CC(=O)N(C)c1cnc2nc(-c3n[nH]c4c3C[C@@H]3C[C@]3(C)C4)[nH]c2c1` [Example 72, N,3-Dimethyl-N-(2-((4aS,5aR)-5a-methyl-1,4,4a,5,5a,6-hexahydrocyclopropa[f]indazol-3-yl)-1H-imidazo[4,5-b]pyridin-6-yl)butanamide], the half-inhibitory concentration (IC50) in assay [1] amounted to 248 nM; in assay [2] it was 39 nM.
Consider `CN(C(=O)CC(C)(C)C)c1cnc2nc(-c3n[nH]c4c3C[C@@H]3C[C@]3(C)C4)[nH]c2c1` [Example 73, N,3,3-Trimethyl-N-(2-((4aS,5aR)-5a-methyl-1,4,4a,5,5a,6-hexahydrocyclopropa[f]indazol-3-yl)-1H-imidazo[4,5-b]pyridin-6-yl)butanamide], for which the IC50 was found to be 498 nM in assay [1] and 57 nM in assay [2].
On to `CC(C)CCC(=O)N(C)c1cnc2nc(-c3n[nH]c4c3C[C@@H]3C[C@]3(C)C4)[nH]c2c1` [Example 74, N,4-Dimethyl-N-(2-((4aS,5aR)-5a-methyl-1,4,4a,5,5a,6-hexahydrocyclopropa[f]indazol-3-yl)-1H-imidazo[4,5-b]pyridin-6-yl)pentanamide], for which the IC50 in assay [1] came out at 311 nM; in assay [2], 50 nM.
For the compound `CC(=O)N(CC(=O)N(C)c1cnc2nc(-c3n[nH]c4c3C[C@@H]3C[C@]3(C)C4)[nH]c2c1)C(C)C` [Example 75, 2-(N-Isopropylacetamido)-N-methyl-N-(2-((4aS,5aR)-5a-methyl-1,4,4a,5,5a,6-hexahydrocyclopropa[f]indazol-3-yl)-1H-imidazo[4,5-b]pyridin-6-yl)acetamide], the figures for the IC50 in assay [1] and in assay [2] were 862 nM and 57 nM, respectively.
With `CCC(C)CC(=O)N(C)c1cnc2nc(-c3n[nH]c4c3C[C@@H]3C[C@]3(C)C4)[nH]c2c1` (stereo partly drawn) [Example 76, N,3-Dimethyl-N-(2-((4aS,5aR)-5a-methyl-1,4,4a,5,5a,6-hexahydrocyclopropa[f]indazol-3-yl)-1H-imidazo[4,5-b]pyridin-6-yl)pentanamide], the results for the IC50 in assay [1] and in assay [2] were 389 nM and 51 nM, respectively.
The corresponding values for `CN(C(=O)CC1CCC1)c1cnc2nc(-c3n[nH]c4c3C[C@@H]3C[C@]3(C)C4)[nH]c2c1` [Example 77, 2-Cyclobutyl-N-methyl-N-(2-((4aS,5aR)-5a-methyl-1,4,4a,5,5a,6-hexahydrocyclopropa[f]indazol-3-yl)-1H-imidazo[4,5-b]pyridin-6-yl)acetamide] are 247 nM and 27 nM.
In the case of `CC(C)C(=O)N(C)CC(=O)N(C)c1cnc2nc(-c3n[nH]c4c3C[C@@H]3C[C@]3(C)C4)[nH]c2c1` [Example 78, N-Methyl-N-(2-(methyl(2-((4aS,5aR)-5a-methyl-1,4,4a,5,5a,6-hexahydrocyclopropa[f]indazol-3-yl)-1H-imidazo[4,5-b]pyridin-6-yl)amino)-2-oxoethyl)isobutyramide], the 50% inhibitory concentration (IC50) is 552 nM in assay [1] and 35 nM in assay [2].
With `CN(C(=O)CN1CCCCC1=O)c1cnc2nc(-c3n[nH]c4c3C[C@@H]3C[C@]3(C)C4)[nH]c2c1` [Example 79, N-Methyl-N-(2-((4aS,5aR)-5a-methyl-1,4,4a,5,5a,6-hexahydrocyclopropa[f]indazol-3-yl)-1H-imidazo[4,5-b]pyridin-6-yl)-2-(2-oxopiperidin-1-yl)acetamide], the IC50 is 1590 nM in assay [1] and 43 nM in assay [2].
In the case of `CN(C(=O)C1CCCC1)c1cnc2nc(-c3n[nH]c4c3C[C@@H]3C[C@]3(C)C4)[nH]c2c1` [Example 81, N-Methyl-N-(2-((4aS,5aR)-5a-methyl-1,4,4a,5,5a,6-hexahydrocyclopropa[f]indazol-3-yl)-1H-imidazo[4,5-b]pyridin-6-yl)cyclopentanecarboxamide], the IC50 came out at 182 nM in assay [1] and 21 nM in assay [2].
For `CCC(CC)C(=O)N(C)c1cnc2nc(-c3n[nH]c4c3C[C@@H]3C[C@]3(C)C4)[nH]c2c1` [Example 82, 2-Ethyl-N-methyl-N-(2-((4aS,5aR)-5a-methyl-1,4,4a,5,5a,6-hexahydrocyclopropa[f]indazol-3-yl)-1H-imidazo[4,5-b]pyridin-6-yl)butanamide], the IC50 in assay [1] amounted to 176 nM; in assay [2], 20 nM.
The like results for `CC[C@H](C)C(=O)N(C)c1cnc2nc(-c3n[nH]c4c3C[C@@H]3C[C@]3(C)C4)[nH]c2c1` [Example 83, (S)-N,2-Dimethyl-N-(2-((4aS,5aR)-5a-methyl-1,4,4a,5,5a,6-hexahydrocyclopropa[f]indazol-3-yl)-1H-imidazo[4,5-b]pyridin-6-yl)butanamide] were, in that order, 371 nM and 47 nM.
The like results for `CN(C(=O)C12CC(C1)C2)c1cnc2nc(-c3n[nH]c4c3C[C@@H]3C[C@]3(C)C4)[nH]c2c1` [Example 85, N-Methyl-N-(2-((4aS,5aR)-5a-methyl-1,4,4a,5,5a,6-hexahydrocyclopropa[f]indazol-3-yl)-1H-imidazo[4,5-b]pyridin-6-yl)bicyclo[1.1.1]pentane-1-carboxamide] were, in that order, 1220 nM and 91 nM.
The like results for `CC[C@@H](C)C(=O)N(C)c1cnc2nc(-c3n[nH]c4c3C[C@@H]3C[C@]3(C)C4)[nH]c2c1` [Example 87, (R)-N,2-Dimethyl-N-(2-((4aS,5aR)-5a-methyl-1,4,4a,5,5a,6-hexahydrocyclopropa[f]indazol-3-yl)-1H-imidazo[4,5-b]pyridin-6-yl)butanamide] were, in that order, 246 nM and 26 nM.
Turning to `CCC(C)(C)C(=O)N(C)c1cnc2nc(-c3n[nH]c4c3C[C@@H]3C[C@]3(C)C4)[nH]c2c1` [Example 88, N,2,2-Trimethyl-N-(2-((4aS,5aR)-5a-methyl-1,4,4a,5,5a,6-hexahydrocyclopropa[f]indazol-3-yl)-1H-imidazo[4,5-b]pyridin-6-yl)butanamide], the IC50 came to 808 nM in assay [1] and 118 nM in assay [2].
For the compound `CN(c1cnc2nc(-c3n[nH]c4c3C[C@@H]3C[C@]3(C)C4)[nH]c2c1)C(=O)[C@H]1C[C@@H](C)C1` [Example 89, (1s,3R)-N,3-Dimethyl-N-(2-((4aS,5aR)-5a-methyl-1,4,4a,5,5a,6-hexahydrocyclopropa[f]indazol-3-yl)-1H-imidazo[4,5-b]pyridin-6-yl)cyclobutane-1-carboxamide], the IC50 is 324 nM in assay [1] and 27 nM in assay [2].
`CN(C(=O)C1CCOCC1)c1cnc2[nH]c(-c3n[nH]c4c3CCC(C)(C)C4)nc2c1` [Example 90, N-(2-(6,6-Dimethyl-4,5,6,7-tetrahydro-1H-indazol-3-yl)-3H-imidazo[4,5-b]pyridin-6-yl)-N-methyltetrahydro-2H-pyran-4-carboxamide]: the IC50 in assay [1] is 892 nM; in assay [2], 545 nM.
For the compound `CN(C(=O)CC(C)(C)C)c1cnc2[nH]c(-c3n[nH]c4c3CCC(C)(C)C4)nc2c1` [Example 91, N-(2-(6,6-Dimethyl-4,5,6,7-tetrahydro-1H-indazol-3-yl)-3H-imidazo[4,5-b]pyridin-6-yl)-N,3,3-trimethylbutanamide], the IC50 in assay [1] turned out to be 384 nM; in assay [2], 144 nM.
`CC[C@H](C)C(=O)N(C)c1cnc2[nH]c(-c3n[nH]c4c3CCC(C)(C)C4)nc2c1` [Example 92, (S)-N-(2-(6,6-Dimethyl-4,5,6,7-tetrahydro-1H-indazol-3-yl)-3H-imidazo[4,5-b]pyridin-6-yl)-N,2-dimethylbutanamide]: the IC50 in assay [1] was above 10000 nM; in assay [2], 698 nM.

The IC50 is the point on the concentration scale where inhibition reaches its midpoint. Low values mean inhibition by little substance, high ones a need for much substance.
